Tests used:
glutathione in the brain = test: Glutathione (GSH) levels in whole-brain homogenates by LC/MS after intranasal or oral NAC; type: in vivo, male Sprague-Dawley rats; conditions: for glutathione in the brain compared to vehicle control (IN PBS): 0.5 hours and 2 hours following administration
Description: (§1) In this example, a study was conducted to evaluate the pharmacokinetics of N-acetyl cysteine administered in an intranasal formulation. The study also evaluated the effectiveness on intranasally administered NAC to increase glutathione concentration in the brain.
(§2) C13-labelled N-acetyl L-cysteine (purchased from Cambridge Isotope Laboratories) was used to prepare formulations in phosphate-buffered saline (PBS) for the study. The subjects for the study were male Sprague-Dawley rats weighing approximately 250 grams, and 39 animals were separated into four groups, as shown in Table 1. The animals in the study groups were administered either an intranasal (IN) dose or an oral (PO) dose of N-acetyl cysteine via gavage, as shown in Table 1. Group 1 and group 2 were administered one 20 μl, intranasal injection. Group 3 was administered a single oral dose of 500 μL. Group 4 was administered two separate 10 μL intranasal injections (one per nostril).
The animals were fasted the night prior to the study and were anesthetized using a cocktail of ketamine/xylazine before administration of the study formulation. The rats were left on their sides for 15 minutes after administration of the study formulation. The animals were observed post administration, and at least once a day, more if deemed necessary, during the pre-treatment and treatment periods for mortality and morbidity. In particular, signs of ill health were based on body weight loss, change in appetite, and behavioral changes such as altered gait, lethargy and gross manifestations of stress.
(§3) Three animals from each Group were sacrificed at the established time points (0.5 hour, 1.0 hour and 2.0 hour), and whole brains from the sacrificed animals were collected for analysis. 3 animals from Group 3 were also sacrificed pre-dose and analyzed. The brain samples were stored at −80° C. freezer until sample analysis. Homogenates of the brain samples were prepared and analyzed, and glutathione (GSH) levels in the brain samples were measured by LC/MS.

[1] = set-up: species or system male Sprague-Dawley rats; conditions: rat, in vivo, 20 mg/kg
Description: as §1
as §2, with “nostril). […]” for “nostril).”
as §3, with “The brain samples were stored at −80° C. freezer until sample analysis.” left out

[2] = orally administered; cited from earlier work
[3] = system: blast induced mild traumatic brain injury; conditions: orally administered, cited from earlier work
traumatic brain injury [4] = conditions: more than 20 preclinical studies; cited from earlier work
traumatic brain injury [5] = conditions: cited from earlier work

Molecule | raising glutathione levels in the brain, intranasal compared with oral NAC (glutathione in the brain; intranasal 20 mg/kg vs oral (PO) 20 mg/kg, rat whole brain, FIG. 1) | increased GSH concentration in the brain, IN NAC vs IN PBS group (glutathione in the brain; intranasal 20 mg/kg, 2 hour point, p=0.033, Student's T-test, planned comparison) | glutathione in the brain compared to vehicle control (IN PBS) (glutathione in the brain; intranasal NAC 20 mg/kg) | glutathione in the brain compared to vehicle control (IN PBS) (glutathione in the brain; oral NAC 20 mg/kg) | concentration of isotope labeled NAC in brain tissue following administration [1] | adverse effects [2] | severity and resolution of sequelae of blast induced mild traumatic brain injury ([3]; 81 active duty service members) | reducing the symptoms of mild-moderate traumatic brain injury in human patients [3] | outcome following traumatic brain injury (traumatic brain injury [4]) | increase of the incidence of deep venous thrombosis of the lower limbs (traumatic brain injury [5]; in vivo) | number of patients with severe neurological dysfunction (GOS-E level 1-4) (traumatic brain injury [5]; large multi-center randomized controlled trial)
CC(=O)N[C@@H](CS)C(=O)O [NAC, N-acetylcysteine] | as effective as oral NAC | statistically significant | Clear trends for increased glutathione | Clear trends for increased glutathione | did not detect an increase | may cause nausea, vomiting and diarrhea | beneficial effects | effective | – | – | –
erythropoietin | – | – | – | – | – | – | – | – | improves outcome | did not | did not reduce
